Results from ChEMBL document CHEMBL1133853, “Cyclopenta[g]quinazoline-based antifolates: the effect of the chirality at the 6-position on the inhibition of thymidylate synthase (TS)” (Bioorg Med Chem Lett, 2001).

Target: Thymidylate synthase (Mus musculus, UniProt P07607)
Assay: Tested for inhibitory activity against thymidylate synthase of L1210 cells
Assay type: cell-based
Settings: read-out: Ki app

Sequence of Thymidylate synthase (P07607 whole entry): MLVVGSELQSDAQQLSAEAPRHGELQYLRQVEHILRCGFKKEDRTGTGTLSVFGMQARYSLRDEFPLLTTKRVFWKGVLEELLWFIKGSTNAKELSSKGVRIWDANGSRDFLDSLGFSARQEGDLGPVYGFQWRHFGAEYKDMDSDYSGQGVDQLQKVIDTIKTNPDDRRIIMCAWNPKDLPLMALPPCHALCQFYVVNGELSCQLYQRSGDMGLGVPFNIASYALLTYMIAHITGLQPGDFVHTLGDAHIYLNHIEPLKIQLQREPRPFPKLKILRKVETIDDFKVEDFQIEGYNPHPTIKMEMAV

Row | SMILES | Ki
1 | C#CCN(c1ccc(C(=O)N[C@@H](CCC(=O)NC(CCC(=O)O)c2nnn[nH]2)C(=O)O)cc1)C1CCc2cc3nc(C)nc(O)c3cc21 (stereo partly specified) | 0.2 nM
2 | C#CCN(c1ccc(C(=O)N[C@@H](CCCS(=O)(=O)c2nc[nH]n2)C(=O)O)cc1)[C@@H]1CCc2cc3nc(C)nc(O)c3cc21 | 1200 nM
3 | C#CCN(c1ccc(C(=O)N[C@@H](CCCS(=O)(=O)c2nc[nH]n2)C(=O)O)cc1)[C@H]1CCc2cc3nc(C)nc(O)c3cc21 | 0.71 nM
4 | C#CCN(c1ccc(C(=O)N[C@@H](CCC(=O)N[C@H](CCC(=O)O)C(=O)O)C(=O)O)cc1)[C@@H]1CCc2cc3nc(C)[nH]c(=O)c3cc21 | 3.5 nM
5 | C#CCN(c1ccc(C(=O)N[C@@H](CCC(=O)NC(CCC(=O)O)C(=O)O)C(=O)O)cc1)C1CCc2cc3nc(C)nc(O)c3cc21 (stereo partly specified) | 0.42 nM
6 | C#CCN(c1ccc(C(=O)N[C@@H](CCC(=O)N[C@H](CCC(=O)O)c2nnn[nH]2)C(=O)O)cc1)[C@@H]1CCc2cc3nc(C)[nH]c(=O)c3cc21 | 2.1 nM
